Assay results published in ChEMBL document CHEMBL1133247, “Synthesis of novel ferrocenyl sugars and their antimalarial activities” (Bioorg Med Chem Lett, 2000).

Experiments:
[1] = Selectivity is the ratio of mean EC50 value against […] cells to that of EC50 value against Plasmodium falciparum; format: functional
Plasmodium falciparum = assay: In vitro antimalarial activity against chloroquine-sensitive Plasmodium falciparum FCR3; format: functional, organism-based
FM3A = assay: In vitro cytotoxic activity against mouse mammary tumor FM3A cells; format: functional, cell-based

C=C[C@H]1CN2CC[C@H]1C[C@H]2[C@H](O)c1ccnc2ccc(OC)cc12 [QUININE]
Selectivity [1]: 910 | EC50 (Plasmodium falciparum): 0.11 µM | EC50 (FM3A): 100 µM
